In patent publication US10973936B2, “18F-saccharide-folates” (MERCK & CIE, priority 2011, dated 2021):

What was measured:
[1] = format: physicochemical; conditions: pH 7.4
Description: The distribution coefficient (log D7.4) was determined by the shake flask method. In brief, γ-[^18F]-glucose folate was dissolved in a mixture of phosphate buffer (500 μL, pH 7.4) and n-octanol ([…]) at 20° C. The sample was equilibrated for 15 min in an over-head shaker. The two phases were separated by centrifugation (3 min, 5000 rpm) and 50 μL aliquots were taken from each layer and counted for radioactivity in a γ-counter. The partition coefficient is expressed as the ratio of radioactivity (cpm) in the octanol phase to the one in the PBS phase represents the mean±standard deviation of eight measurements.

KB tumor xenografts = assay: PET imaging of KB tumor xenografts; format: in vivo; conditions: for PET images of KB tumor xenografts: 75-105 min p.i.; for specificity of uptake (blocking with folic acid): PET, excess folic acid 10 min prior to radiotracer
Description: PET experiments were performed with Explore VISTA PET/CT tomograph (GE), which provides an ultrahigh resolution of less than 0.9 mm. Animals were lightly restrained and injected with 10-14 MBq of γ-[^18F]-glucose folate (100-150 μL per injection) via a lateral tail vein. […] Animals were anesthetized with isoflurane in an air/oxygen mixture. The PET scans were acquired from 75-105 min post-injection. The fused datasets of PET and CT were analyzed with Amira (Version 4) postprocessing software.

folate receptor = target: T1, folate receptor (Homo sapiens, UniProt P15328); assay: In vitro binding affinity assay, displacement of 3H-folic acid on KB cells; conditions: 3H-folic acid 0.82 nM, 4° C., 30 min; for IC50: three independent experiments, read-out: mean inhibitory concentration of 50% (IC50 value)
T1 construct: endogenous in cells; host or cells: KB cells (human cervical carcinoma), whole-cell suspension
T1 sequence (P15328 25-234): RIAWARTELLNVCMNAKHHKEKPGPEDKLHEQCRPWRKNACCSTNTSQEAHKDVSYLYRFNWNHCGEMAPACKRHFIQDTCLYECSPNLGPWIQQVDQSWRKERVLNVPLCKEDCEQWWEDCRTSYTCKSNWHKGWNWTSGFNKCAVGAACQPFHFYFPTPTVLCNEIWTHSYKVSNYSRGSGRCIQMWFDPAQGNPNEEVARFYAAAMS
Description: Binding affinity assays were performed with KB cells derived from human cervical carcinoma, where the folate receptor is overexpressed. The cells were cultured as monolayers in 75 cm^2 flasks at 37° C. in a humidified atmosphere (7.5% CO2). The cells were kept in a special folate-deficient RPMI 1640 medium (FFRPMI 1640; Cell Culture Technologies) supplemented with heat-inactivated fetal calf serum (10%), L-glutamine, penicillin (100 IU/mL), and streptomycin ([…]). The fetal calf serum was the only source of folate in the medium, which is reported to provide a final folate concentration of about 3 nmol/mL, which is at the low end of the physiologic serum concentration in humans.
A cell suspension in pure FFRPMI 1640 medium (no additives, ice-cold) was added into 1.5 mL vials (7000 cells in 240 μL). […] After incubation, the suspension was centrifuged at 3500 rpm and 4° C. for 5 min and the supernatant was removed. By addition of 0.5 mL of 1 N NaOH, the cell pellets were resuspended and lysed at the same time. The lysed cells were stirred in a vortex mixer and transferred into scintillation tubes containing 4 mL of scintillation cocktail (Ultima Gold; Perkin Elmer). Radioactivity was measured using a β-counter (LS6500; Beckman), and the inhibitory concentrations of 50% were determined from displacement curves using Graph Pad Prism 4.0 software.

log D7.4 [1]	Ki (folate receptor)	IC50 (folate receptor)	Structure (SMILES)	PET images of KB tumor xenografts (KB tumor xenografts)	specificity of uptake (blocking with folic acid) (KB tumor xenografts)
−4.20±0.06	–	–	Nc1nc2ncc(CNc3ccc(C(=O)NC(CCC(=O)O)C(=O)NC(Cc4cn(C5OC(CO)C(O)C(O)C5[18F])nn4)C(=O)O)cc3)nc2c(=O)[nH]1 (stereo not drawn) [α-[^18F]-glucose folate]	excellent images of KB tumor xenografts	highly specific and blocked by natural folic acid
–	0.7 ± 0.2 nM	1.4 ± 0.2 nM	Nc1nc2ncc(CNc3ccc(C(=O)NC(CCC(=O)O)C(=O)NC(Cc4cn(C5OC(CO)C(O)C(O)C5F)nn4)C(=O)O)cc3)nc2c(=O)[nH]1 (stereo not drawn) [α-glucose folate, α-[^19F]-Glucose Folate]	–	–
−4.21±0.14	–	–	Nc1nc2ncc(CNc3ccc(C(=O)NC(CCC(=O)NC(Cc4cn(C5OC(CO)C(O)C(O)C5[18F])nn4)C(=O)O)C(=O)O)cc3)nc2c(=O)[nH]1 (stereo not shown) [γ-[^18F]-glucose folate]	excellent images of KB tumor xenografts	highly specific and blocked by natural folic acid
–	0.8 ± 0.1 nM	1.6 ± 0.1 nM	Nc1nc2ncc(CNc3ccc(C(=O)NC(CCC(=O)NC(Cc4cn(C5OC(CO)C(O)C(O)C5F)nn4)C(=O)O)C(=O)O)cc3)nc2c(=O)[nH]1 (stereo not shown) [γ-glucose folate, γ-[^19F]-Glucose Folate]	–	–
